Assays:
[1] = tested on: transgenic herbicide-resistant rubber-producing dandelions expressing the bar gene; assay: glufosinate treatment of mature transgenic (bar gene) plants; format: in vivo, Taraxacum kok-saghyz and Taracum brevicorniculatum; conditions: for survival rate: formulated under the brand BASTA, mature transgenic plants
Excerpt: Applicants show the successful generation of rubber-producing dandelions species, which display resistance to broad leaf herbicide glufosinate. Using similar methods as described in Example 1, transgenic plants were generated using Agrobacterium tumafaciens-mediated transformation of leaf discs or root fragments, followed by regeneration of transgenic plants, which were then acclimated and transferred to pots within greenhouses. The bar gene, was expressed singly or in combination with other genes of interest in two rubber-producing dandelion species, Taraxacum kok-saghyz and Taracum brevicorniculatum. Table 1 describes the list of gene constructs used for the generation of transgenic herbicide-resistant dandelions.
Confirmation of a transgenic event was validated by PCR and resistance confirmed through treatment of mature transgenic plants with varying doses of glufosinate (e.g., 25 mg/L, 50 mg/L, 100 mg/L, 200 mg/L, etc.) formulated under the brand BASTA®. Treatment of plants with glufosinate at 25 mg/L yielded a 100% survival rate, 50 mg/L yielded a 50% survival rate, 150 mg/L yielded a 100% survival rate, and 200 mg/L yielded a 50% survival rate.

[2] = tested on: wild-type plants (dandelions); assay: glufosinate exposure of wild-type dandelions; format: in vivo; conditions: FIG. 11
Excerpt: FIG. 11: Comparison of wild-type dandelions and exemplary herbicide-resistant rubber-producing dandelions after exposure to herbicide.

[3] = tested on: non-transgenic TK; assay: kanamycin selection, elimination of non-transgenic TK; format: in vivo, Taraxacum kok-saghyz; conditions: ½ MS medium, data not shown
Experimental: (§1) Roots then were blotted dry on filter paper and transferred to co-culture medium (solid 1⁄2 MS medium with 200 μm acetosyringone). After 3 days of co-culture with agrobacteria, root fragments were washed sequentially with water and liquid 1⁄2 MS medium with 400 mg L^-1 Timentin, and then transferred to solid 1⁄2 MS medium with 400 mg L^-1 Timentin. […] After 3 weeks further selection, transgene events were validated in selected plants. Root fragments of TK and TB were also inoculated with A. rhizogenes […] wild type using the same method. After recovery, root fragments were transferred to 1⁄2 MS medium with 400 mg L^-1 Timentin for regeneration. Approximately 30 root fragments were used for each replicate and three replicates were used for each treatment. […] Transgene presence was validated by PCR analysis (FIGS. 5A and B) and transgene expression at the transcription level was confirmed by RT-PCR (FIGS. 6A and B) using leaf tissue.

[4] = tested on: non-transgenic TB; assay: kanamycin selection, elimination of non-transgenic TB; format: in vivo, T. brevicorniculatum; conditions: ½ MS medium, data not shown
Experimental: as §1

Row | SMILES | herbicide tolerance after exposure to glufosinate ([1]; exemplary dandelions of the invention, FIG. 11) | injury as a result of exposure to glufosinate ([1]; exemplary plant of the invention, FIGS. 9-10) | survival rate ([1]; glufosinate at 25 mg/L) | survival rate ([1]; glufosinate at 50 mg/L) | survival rate ([1]; glufosinate at 150 mg/L) | survival rate ([1]; glufosinate at 200 mg/L) | injury when exposed to glufosinate [2] | kanamycin concentration effective at eliminating non-transgenic plants [3] | kanamycin concentration effective at eliminating non-transgenic plants [4]
1 | CP(=O)(O)CCC(N)C(=O)O (stereo not drawn) [glufosinate] | varying degrees herbicide tolerance | little to no injury | 100% | 50% | 100% | 50% | significant injury and/or death |  | 
2 | NC[C@H]1O[C@H](O[C@H]2[C@H](O)[C@@H](O[C@H]3O[C@H](CO)[C@@H](O)[C@H](N)[C@H]3O)[C@H](N)C[C@@H]2N)[C@H](O)[C@@H](O)[C@@H]1O [kanamycin] |  |  |  |  |  |  |  | 10 mg/L | 20 mg/L

From patent US20170314033A1, “HERBICIDE-RESISTANT TARAXACUM KOK-SAGHYZ AND TARAXACUM BREVICORNICULATUM” (Ohio State Innovation Foundation, priority 2016, published 2017)
